Experimental data reported in ChEMBL document CHEMBL3046387, “Antidepressant activity of carbamates and urea derivatives” (Med Chem Res, 2012).
Activity calls are given as the source filed them. The rule behind the calls is not given here.

What follows are compounds tested on Mus musculus (assay: Antidepressant activity in Mus musculus (mouse) assessed as reduction of immobility time at 10 mg/kg after 1 hr measured for 5 min by forced swim test).
Assay type: functional

Question: `CCOC(=O)Nc1ccccc1` [ETHYL PHENYLCARBAMATE] was tested. Which inhibition in vivo at 10 mg/kg did it give?
Answer: Its inhibition in vivo at 10 mg/kg is 21.6%.

Question: Which inhibition in vivo at 10 mg/kg does the source give for `CCN(CC)C(=O)Nc1ccccc1C(=O)O` here?
Answer: Its inhibition in vivo at 10 mg/kg is 3.52%.

Question: Which inhibition does the source give for `CCNC(=S)N1CCN(c2ccccc2)CC1` here?
Answer: The inhibition was “inactive”.

Question: `CCN(CC)C(=O)Nc1ccc(Cl)cc1` was tested. Which inhibition in vivo at 10 mg/kg did it give?
Answer: The inhibition in vivo at 10 mg/kg was 7.04%.

Question: How did the inhibition in vivo at 10 mg/kg turn out when `NNCCc1ccccc1` [PHENELZINE] was run?
Answer: Its inhibition in vivo at 10 mg/kg is 15.9%.

Question: With `O=C(Nc1ccccc1)N1CCN(c2ccccc2)CC1` as the compound, how does the inhibition in vivo at 10 mg/kg read?
Answer: The inhibition in vivo at 10 mg/kg was 27.7%.

Question: How did the inhibition turn out when `CCN(CC)C(=O)Nc1c(C)cccc1C` was run?
Answer: Its inhibition is “inactive”.

Question: Which inhibition in vivo at 10 mg/kg does the source give for `CCN(CC)C(=O)Nc1ccc(C(=O)O)cc1` here?
Answer: The inhibition in vivo at 10 mg/kg was 16.7%.

Question: `CCCCCCCOC(=O)Nc1ccccc1` was tested. Which inhibition in vivo at 10 mg/kg did it give?
Answer: Its inhibition in vivo at 10 mg/kg is 32.5%.
